Source: PubChem BioAssay (NCI)
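All cell lines were grown in 96-well plates and treated with compound for 48 hours. TGI: total growth inhibition.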

Experiments:
Experiment in all cases: NCI anticancer screen, dose series, 48 h
SF-539 CNS = test system: SF-539 CNS
HOP-62 NSCLC = test system: HOP-62 NSCLC
A498 renal = test system: A498 renal
OVCAR-4 ovarian = test system: OVCAR-4 ovarian
SK-OV-3 ovarian = test system: SK-OV-3 ovarian
HOP-92 NSCLC = test system: HOP-92 NSCLC
KM12 colon = test system: KM12 colon
MOLT-4 leukemia = test system: MOLT-4 leukemia
UO-31 renal = test system: UO-31 renal
OVCAR-5 ovarian = test system: OVCAR-5 ovarian
K-562 leukemia = test system: K-562 leukemia
COLO 205 colon = test system: COLO 205 colon
HL-60(TB) leukemia = test system: HL-60(TB) leukemia
SN12C renal = test system: SN12C renal
NCI-H23 lung = test system: NCI-H23 lung
MDA-MB-231 breast = test system: MDA-MB-231 breast
HCT-116 colon = test system: HCT-116 colon
TK-10 renal = test system: TK-10 renal
T-47D breast = test system: T-47D breast
SK-MEL-5 melanoma = test system: SK-MEL-5 melanoma
M14 melanoma = test system: M14 melanoma
MCF7 breast = test system: MCF7 breast
SW-620 colon = test system: SW-620 colon
SK-MEL-28 melanoma = test system: SK-MEL-28 melanoma
SF-268 CNS = test system: SF-268 CNS
NCI/ADR-RES ovarian = test system: NCI/ADR-RES ovarian
RXF 393 renal = test system: RXF 393 renal
IGROV1 ovarian = test system: IGROV1 ovarian
786-0 renal = test system: 786-0 renal
SNB-19 CNS = test system: SNB-19 CNS
CAKI-1 renal = test system: CAKI-1 renal
DU-145 prostate = test system: DU-145 prostate
U251 CNS = test system: U251 CNS
OVCAR-3 ovarian = test system: OVCAR-3 ovarian
HT29 colon = test system: HT29 colon
HCT-15 colon = test system: HCT-15 colon
PC-3 prostate = test system: PC-3 prostate
NCI-H226 lung = test system: NCI-H226 lung
SK-MEL-2 melanoma = test system: SK-MEL-2 melanoma
A549 NSCLC = test system: A549 NSCLC
SR leukemia = test system: SR leukemia
HS 578T breast = test system: HS 578T breast
MALME-3M melanoma = test system: MALME-3M melanoma
MDA-N = test system: MDA-N
UACC-62 melanoma = test system: UACC-62 melanoma
EKVX NSCLC = test system: EKVX NSCLC
NCI-H522 lung = test system: NCI-H522 lung
RPMI-8226 leukemia = test system: RPMI-8226 leukemia
LOX IMVI melanoma = test system: LOX IMVI melanoma
SF-295 CNS = test system: SF-295 CNS
NCI-H460 lung = test system: NCI-H460 lung
UACC-257 melanoma = test system: UACC-257 melanoma
ACHN renal = test system: ACHN renal
OVCAR-8 ovarian = test system: OVCAR-8 ovarian
BT-549 breast = test system: BT-549 breast
HCC-2998 colon = test system: HCC-2998 colon
SNB-75 CNS = test system: SNB-75 CNS
CCRF-CEM leukemia = test system: CCRF-CEM leukemia
MDA-MB-435 = test system: MDA-MB-435

Measured: TGI

O=C(OCc1ccccc1)N1CCCc2c(n(S(=O)(=O)c3ccccc3)c3ccccc23)C1
> 100 µM: SF-539 CNS | HOP-62 NSCLC | A498 renal | OVCAR-4 ovarian | SK-OV-3 ovarian | HOP-92 NSCLC | KM12 colon | MOLT-4 leukemia | UO-31 renal | OVCAR-5 ovarian | K-562 leukemia | COLO 205 colon | HL-60(TB) leukemia | SN12C renal | NCI-H23 lung | MDA-MB-231 breast | HCT-116 colon | TK-10 renal | T-47D breast | SK-MEL-5 melanoma | M14 melanoma | MCF7 breast | SW-620 colon | SK-MEL-28 melanoma | SF-268 CNS | NCI/ADR-RES ovarian | RXF 393 renal | IGROV1 ovarian | 786-0 renal | SNB-19 CNS | CAKI-1 renal | DU-145 prostate | U251 CNS | OVCAR-3 ovarian | HT29 colon | HCT-15 colon | PC-3 prostate | NCI-H226 lung | SK-MEL-2 melanoma | A549 NSCLC | SR leukemia | HS 578T breast | MALME-3M melanoma | MDA-N | UACC-62 melanoma | EKVX NSCLC | NCI-H522 lung | RPMI-8226 leukemia | LOX IMVI melanoma | SF-295 CNS | NCI-H460 lung | UACC-257 melanoma | ACHN renal | OVCAR-8 ovarian | BT-549 breast

Nc1nc(-c2cccs2)cs1
> 100 µM: SF-539 CNS | HOP-62 NSCLC | HCC-2998 colon | A498 renal | OVCAR-4 ovarian | SK-OV-3 ovarian | HOP-92 NSCLC | SNB-75 CNS | KM12 colon | UO-31 renal | OVCAR-5 ovarian | CCRF-CEM leukemia | K-562 leukemia | COLO 205 colon | HL-60(TB) leukemia | MDA-MB-435 | SN12C renal | NCI-H23 lung | MDA-MB-231 breast | HCT-116 colon | TK-10 renal | T-47D breast | SK-MEL-5 melanoma | M14 melanoma | MCF7 breast | SW-620 colon | SK-MEL-28 melanoma | SF-268 CNS | NCI/ADR-RES ovarian | RXF 393 renal | IGROV1 ovarian | 786-0 renal | SNB-19 CNS | CAKI-1 renal | DU-145 prostate | U251 CNS | OVCAR-3 ovarian | HT29 colon | HCT-15 colon | PC-3 prostate | SK-MEL-2 melanoma | A549 NSCLC | SR leukemia | HS 578T breast | MALME-3M melanoma | MDA-N | UACC-62 melanoma | EKVX NSCLC | NCI-H522 lung | RPMI-8226 leukemia | LOX IMVI melanoma | SF-295 CNS | NCI-H460 lung | UACC-257 melanoma | ACHN renal | OVCAR-8 ovarian | BT-549 breast

CCOP(=O)(OCC)C(F)(F)Cc1cnc(C)c2c1COC(C)(C)O2
> 10 µM: SF-539 CNS | HOP-62 NSCLC | HCC-2998 colon | A498 renal | OVCAR-4 ovarian | SK-OV-3 ovarian | HOP-92 NSCLC | SNB-75 CNS | KM12 colon | MOLT-4 leukemia | UO-31 renal | OVCAR-5 ovarian | CCRF-CEM leukemia | K-562 leukemia | COLO 205 colon | HL-60(TB) leukemia | MDA-MB-435 | SN12C renal | NCI-H23 lung | MDA-MB-231 breast | HCT-116 colon | TK-10 renal | T-47D breast | SK-MEL-5 melanoma | M14 melanoma | MCF7 breast | SW-620 colon | SK-MEL-28 melanoma | SF-268 CNS | NCI/ADR-RES ovarian | RXF 393 renal | IGROV1 ovarian | 786-0 renal | SNB-19 CNS | CAKI-1 renal | DU-145 prostate | U251 CNS | OVCAR-3 ovarian | HT29 colon | HCT-15 colon | PC-3 prostate | NCI-H226 lung | SK-MEL-2 melanoma | A549 NSCLC | SR leukemia | HS 578T breast | MALME-3M melanoma | MDA-N | UACC-62 melanoma | EKVX NSCLC | RPMI-8226 leukemia | SF-295 CNS | NCI-H460 lung | UACC-257 melanoma | ACHN renal | OVCAR-8 ovarian | BT-549 breast

CCOC(=O)c1ccc(Nc2nc3cc(C(F)(F)F)ccc3nc2C(=O)OCC)cc1
69.5 µM: HCC-2998 colon
62.2 µM: SNB-19 CNS
87 µM: 786-0 renal
> 100 µM: SF-539 CNS | A498 renal | SK-OV-3 ovarian | HOP-92 NSCLC | SNB-75 CNS | KM12 colon | MOLT-4 leukemia | UO-31 renal | OVCAR-5 ovarian | CCRF-CEM leukemia | K-562 leukemia | COLO 205 colon | HL-60(TB) leukemia | MDA-MB-435 | SN12C renal | NCI-H23 lung | MDA-MB-231 breast | HCT-116 colon | T-47D breast | M14 melanoma | MCF7 breast | SW-620 colon | SK-MEL-28 melanoma | SF-268 CNS | NCI/ADR-RES ovarian | RXF 393 renal | IGROV1 ovarian | DU-145 prostate | OVCAR-3 ovarian | HT29 colon | HCT-15 colon | PC-3 prostate | A549 NSCLC | SR leukemia | HS 578T breast | MDA-N | UACC-62 melanoma | EKVX NSCLC | NCI-H522 lung | RPMI-8226 leukemia | LOX IMVI melanoma | SF-295 CNS | NCI-H460 lung | UACC-257 melanoma | ACHN renal | OVCAR-8 ovarian | BT-549 breast
63.1 µM: TK-10 renal
65.2 µM: HOP-62 NSCLC
89.3 µM: SK-MEL-5 melanoma
40.7 µM: U251 CNS
49.6 µM: CAKI-1 renal
